According to patent US20250263376A1, “(E)-N-CINNAMOYLAMINOALKANOLS WITH MELANOGENESIS INHIBITORY ACTIVITY” (Uniwersytet Jagiellonski, priority 2024, published 2025):
Where “and” joins values, the source holds several entries; their conditions need not be identical. Equal entries are not always repeated.

Experiments:
[1] = biological target: T1, tyrosinase from mushroom (Agaricus bisporus, UniProt C7FF04); experiment: Inhibition of commercial mushroom tyrosinase, substrate L-DOPA; type: biochemical; details: for inhibition at 500 µM: read-out: Tyrosinase inhibition with L-DOPA [%]
Experimental: (§1) Studies on the Inhibition of the Activity of Commercial Tyrosinase from Mushroom (Sigma: T3824)
(§2) The following substrates were used for the enzymatic reaction: L-tyrosine and L-3,4-dihyroxyphenylalanine (L-DOPA). Both substrates were used in independent experiments. According to the literature, the use of L-DOPA enables the assessment of tyrosinase diphenolase activity, and L-tyrosine—the tyrosinase monophenolase activity. The determinations were performed in 96-well plates, in each well there was placed: 170 μL or 127.5 μL of 50 mM phosphate buffer (pH=6.8) with tyrosinase (1U/well or 3U/well) and 10 μL of a solution of the tested compound in DMSO (the final concentration in the well was 500 μM, 250 μM or 125 μM). The negative control used 10 u L of pure solvent (DMSO). To initiate the reaction, an appropriate substrate was added: L-tyrosine (62.5 μL of solution in phosphate buffer) or L-DOPA (20 μL of solution in phosphate buffer). After a 25-minute incubation, the absorbance was measured at 475 nm using a microplate reader. The percentage of inhibition of tyrosinase activity was calculated using the formula: [(AC−AT)/[…], where AC—is the absorbance of the negative control, AT—is the absorbance of the sample containing the tested compound.

[2] = biological target: T1, tyrosinase from mushroom; experiment: Inhibition of commercial mushroom tyrosinase, substrate L-tyrosine; type: biochemical; details: for inhibition at 500 µM: read-out: Tyrosinase inhibition with L-tyrosine [%]
Experimental: as §1, §2

[3] = test system: B16-F10 murine melanoma cell line; experiment: Cytotoxicity (MTT) in B16-F10 murine melanoma cells; type: cell-based; details: 48 h
Experimental: Cytotoxicity Assessment in the B16-F10 Murine Melanoma Cell Line (ATTC CRL-6745)—Preliminary Safety Assessment for Subsequent Studies
In order to determine safe doses of compounds for testing the inhibition of melanogenesis in a murine melanoma cell line, cytotoxicity tests were performed. Cytotoxicity was determined by the colorimetric method using MTT ([3-(4,5-dimethyl-2-thiazolyl)-2,5-diphenyl-2H-tetrazolium bromide, Sigma M5655). For this purpose, cells were transferred to 96-well plates in an amount of 5000/well. After 24 h of culture in an incubator in F10-Ham medium with 1% FBS, the tested compounds at various concentrations were added to the wells together with fresh medium. DMSO was added to the medium in a negative control. The MTT test was performed after further culture for 48 h. Then the medium was removed and the formed formazan crystals were dissolved in DMSO. The absorbance was measured at 570 nm in a plate reader and the result was compared to the control (DMSO), which was 100%. The percentage of viability was calculated using the formula: [AT/AC*100], where AT is the absorbance of the test sample, AC—absorbance of the control sample.

[4] = Lipophilicity coefficient RM0 by reversed phase thin layer chromatography; type: physicochemical; details: RP-18 TLC, methanol/phosphate buffer pH=7.4
Experimental: Confirmation of the identity and purity of the obtained compounds consisted in the registration and interpretation of 1H NMR and 13C NMR spectra (the spectra were recorded using an ECZR 500 MHZ (JEOL) series FT-NMR spectrophotometer), as well as the registration and interpretation of LC-MS spectra (the spectra were recorded using Acquita UPLC system (Waters) coupled with a Waters TQD mass spectrometer). The melting point was measured using the open capillary method in the IA9300 device (Electrothermal). The lipophilicity coefficient RM0 was determined by reversed phase thin layer chromatography. In the study, aluminum plates 20×20 cm covered with modified silica gel RP-18 F254 (Merck) were used as the solid phase. The mobile phase consisted of solutions of methanol and 100 mM phosphate buffer (pH=7.4), characterized by a variable methanol content ranging from 95 to 65% (v/v). The tested compounds were dissolved in methanol to obtain solutions with a concentration of 1 mg/mL. Then, […] of the solutions prepared in this way were transferred to the starting line on aluminum plates, which were then placed in chromatographic chambers previously saturated with mobile phase vapors for at least 1 hour. All activities, including the development of chromatograms, were carried out at room temperature. After developing the chromatograms to approximately 1-2 cm from the end of the plate, the plates were dried and then the distance traveled by the tested compounds was visualized under UV light (λ=254 nm). The experiment was performed in duplicate for the specified conditions. For all samples, Rf was calculated according to the formula Rf=a/b, where a—the distance traveled by the tested compound, b—the distance traveled by the mobile phase. Then, the RM parameter was calculated for all samples according to the formula RM=log (1/Rf−1), obtaining a linear relationship between the RM values and the methanol concentration in the mobile phase. The log P coefficient was also calculated using the following computer programs: ACD/ChemSketch 2020.1.2 and ChemDraw 20.0.0.41.

[5] = test system: S. typhimurium TA98; experiment: Ames microplate test, TA98; type: cell-based, Salmonella typhimurium; details: positive control 0.5 μg/mL, + S9
Experimental: Bacteria were grown overnight in growth medium.

[6] = test system: S. typhimurium TA100; experiment: Ames microplate test, TA100; type: cell-based, Salmonella typhimurium; details: positive control 1.25 μg/mL, + S9
Experimental: The study used the Ames microplate test (Ames MPF™ Penta 2 by Xenometrix, Allschwil, Switzerland). Growth medium, exposure medium, indicator medium, positive controls, hepatic microsomal fraction, NADP, glucose-6-phosphate, Salmonella typhimurium and Escherichia coli strains were components of the purchased experimental kit. Bacteria were grown overnight in growth medium. They were then exposed to the test compound at the appropriate concentration in exposure medium without or with the rat microsomal fraction S9 in 24-well plates for 90 min at 37° C. with shaking. Then, indicator medium was added to the wells and pipetted into 384-well plates, which were incubated for 48 hours at 37° C. without shaking. Results were assessed by counting the wells in which the medium turned yellow for each experimental condition.

[7] = test system: S. typhimurium TA1535; experiment: Ames microplate test, TA1535; details: positive control 2.5 μg/mL, + S9;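 note: bacteria exposed 90 min at 37 °C in exposure medium, then 48 h in indicator medium in 384-well plates, yellow (revertant) wells counted per condition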

T1 sequence (C7FF04 2-392): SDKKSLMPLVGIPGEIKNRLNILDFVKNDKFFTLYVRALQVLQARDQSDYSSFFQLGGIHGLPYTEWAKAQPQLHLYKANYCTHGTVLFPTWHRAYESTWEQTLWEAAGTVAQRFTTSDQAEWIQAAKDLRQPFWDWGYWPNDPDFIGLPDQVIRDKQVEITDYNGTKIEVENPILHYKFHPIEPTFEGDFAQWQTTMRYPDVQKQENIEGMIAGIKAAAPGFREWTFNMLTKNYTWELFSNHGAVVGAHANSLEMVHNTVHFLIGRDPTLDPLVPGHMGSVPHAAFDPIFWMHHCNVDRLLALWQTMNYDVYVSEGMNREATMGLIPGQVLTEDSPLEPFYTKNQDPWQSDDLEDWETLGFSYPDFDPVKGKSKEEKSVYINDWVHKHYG
T1 sequence (G1K3P4 entry or part of it, further chain): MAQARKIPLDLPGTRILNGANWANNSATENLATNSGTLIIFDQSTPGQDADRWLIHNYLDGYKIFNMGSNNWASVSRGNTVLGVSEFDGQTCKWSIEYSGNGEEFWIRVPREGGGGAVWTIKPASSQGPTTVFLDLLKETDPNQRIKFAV

inhibition at 500 µM [1] [%] | inhibition at 500 µM [2] [%] | RM0 [4] | inhibition at 125 µM ([1]; 125 μM) [%] | inhibition at 125 µM ([2]; 125 μM) [%] | SMILES | Cytotoxicity study in B16F10 cells, % viability ([3]; 150 μM) [%] | Cytotoxicity study in B16F10 cells, % viability ([3]; 200 μM) [%] | Cytotoxicity study in B16F10 cells, % viability ([3]; 250 μM) [%] | Increase in the number of yellow wells compared to the reference level, TA98 [5] | Increase in the number of yellow wells compared to the reference level, TA100 [6] | Increase in the number of yellow wells compared to the reference level, TA1535 [7] | Cytotoxicity study in B16F10 cells, % viability ([3]; 12.5 μM) [%] | Cytotoxicity study in B16F10 cells, % viability ([3]; 25 μM) [%] | Cytotoxicity study in B16F10 cells, % viability ([3]; 50 μM) [%]
21.2 ± 1.26 | 30.2 ± 10.2 | 2.39 |  |  | CCC(O)CNC(=O)/C=C/c1ccc(C)cc1 (centres unmarked) [Compound A-63, (2E)-N-(2-hydroxybutyl)-3-(4-methylphenyl)prop-2-enamide] | 90.2 | 87.3 | 87.4 |  |  |  |  |  | 
 | 75.1 ± 1.6 | 2.27 |  |  | O=C(/C=C/c1ccc(Cl)cc1)N1CCC(O)CC1 [Compound A-99, (2E)-3-(4-chlorophenyl)-1-(4-hydroxypiperidin-1-yl)prop-2-en-1-one] | 109.8 | 102.6 | 96.6 |  |  |  |  |  | 
 |  |  |  |  | Nc1ccc2cc3ccccc3cc2c1 [Compound 2-AA, 2-aminoanthracene, reference compound] |  |  |  | 24.00 and 15.03 | 4.00 |  |  |  | 
18.6 ± 1.67 | 17.9 ± 7.36 | 2.11 |  |  | O=C(/C=C/c1ccc(Cl)cc1Cl)NCCCO [H-296/20, (2E)-3-(2,4-dichlorophenyl)-N-(3-hydroxypropyl)prop-2-enamide] | 67.0 | 57.0 | 38.3 |  |  |  |  |  | 
41.2 ± 0.81 | 57.6 ± 2.11 | 2.76 |  |  | CC(C)C(CO)NC(=O)/C=C/c1ccc(Cl)cc1 (centres unmarked) [Compound A-106, (2E)-3-(4-chlorophenyl)-N-(1-hydroxy-3-methylbutan-2-yl)prop-2-enamide] | 85.9 | 88.1 | 72.6 |  |  |  |  |  | 
20.5 ± 2.84 | 19.1 ± 2.53 | 3.08 |  |  | O=C(/C=C/c1ccc(Cl)cc1Cl)NCCCCCO [H-297/20, (2E)-3-(2,4-dichlorophenyl)-N-(5-hydroxypentyl)prop-2-enamide] | 102.3 | 73.6 | 88.5 |  |  |  |  |  | 
34.2 ± 2.32 | 27.4 ± 2.24 | 1.60 |  |  | O=C(/C=C/c1ccccc1)NCCCO [KM-634, (2E)-N-(3-hydroxypropyl)-3-phenylprop-2-enamide] | 76.1 | 70.5 | 63.3 |  |  |  |  |  | 
16.9 ± 7.94 | 20.4 ± 2.09 | 2.27 |  |  | Cc1ccc(/C=C/C(=O)NCCCCO)cc1 [H-411/21, (2E)-N-(4-hydroxybutyl)-3-(4-methylphenyl)prop-2-enamide] | 50.6 | 34.9 | 41.2 |  |  |  |  |  | 
 |  |  |  |  | Nc1c2ccccc2nc2ccccc12 [Compound 9-AA, reference compound] |  |  |  |  |  | 10.25 and 15.41 |  |  | 
 |  | 3.02 | 30.7 ± 1.82 | 39.9 ± 3.21 | O=C(/C=C/c1ccc(Cl)cc1)NCCCCCCO [H-426/21, (2E)-3-(4-chlorophenyl)-N-(6-hydroxyhexyl)prop-2-enamide] | 30.3 | 28.2 | 28.3 |  |  |  |  |  | 
17 ± 5.66 | 0.51 ± 5.4 | 2.04 |  |  | Cc1ccc(/C=C/C(=O)NCCCO)cc1 [H-410/21, (2E)-N-(3-hydroxypropyl)-3-(4-methylphenyl)prop-2-enamide] | 88.8 | 90.7 | 79.8 |  |  |  |  |  | 
11.2 ± 2.78 | 20 ± 2.96 | 2.78 |  |  | O=C(/C=C/c1ccc(Cl)cc1Cl)NCCCCO [H-298/20, (2E)-3-(2,4-dichlorophenyl)-N-(4-hydroxybutyl)prop-2-enamide] | 46.5 | 40.6 | 37.4 |  |  |  |  |  | 
21.8 ± 2.31 | 15.3 ± 8.27 | 2.49 |  |  | CCC(CO)NC(=O)/C=C/c1ccc(C)cc1 (centres unmarked) [H-409/21, (2E)-N-(1-hydroxybutan-2-yl)-3-(4-methylphenyl)prop-2-enamide] | 83.2 | 95.3 | 103.4 |  |  |  |  |  | 
30.5 ± 1.2 | 21 ± 8.83 | 1.27 |  |  | O=C(/C=C/c1ccccc1)NCCO [H-429/21, (2E)-N-(2-hydroxyethyl)-3-phenylprop-2-enamide] | 86.4 | 79.8 | 80.9 |  |  |  |  |  | 
34.5 ± 4.18 | 35.5 ± 1.37 | 1.60 |  |  | O=C(/C=C/c1ccccc1)NCCCCO [Compound A-43, (2E)-N-(4-hydroxybutyl)-3-phenylprop-2-enamide] | 108.9 | 105.7 | 103.2 |  |  |  |  |  | 
44 ± 2.6 | 61.8 ± 0.4 | 2.43 |  |  | CCC(CO)NC(=O)/C=C/c1ccc(Cl)cc1 (centres unmarked) [Compound A-01, (2E)-3-(4-chlorophenyl)-N-(1-hydroxybutan-2-yl)prop-2-enamide] | 73.6 | 93.2 | 85.4 |  |  |  |  |  | 
23 ± 6.64 | 4.4 ± 7.15 | 2.17 |  |  | Cc1ccc(/C=C/C(=O)NC(C)CO)cc1 (centres unmarked) [Compound A-69, (2E)-N-(1-hydroxypropan-2-yl)-3-(4-methylphenyl)prop-2-enamide] | 96.6 | 101.3 | 97.5 |  |  |  |  |  | 
64.31 ± 0.21 | 82.5 ± 0.87 | 2.14 |  |  | O=C(/C=C/c1ccc(Cl)cc1)NCCCCO [H-331/21, (2E)-3-(4-chlorophenyl)-N-(4-hydroxybutyl)prop-2-enamide] | 32.7 | 51.9 | 52.7 |  |  |  | 49.0 | 47.8 | 54.2
